| Compound | melting point [°C] |
| --- | --- |
| O=C(N[C@H](Cc1cccc(O)c1)[C@@H](O)c1ccc(F)cc1)c1ccc(F)c2ccccc12 (racemic) [Example 286, 4-fluoro-N-[(1RS,2SR)-2-(4-fluorophenyl)-2-hydroxy-1-(3-hydroxybenzyl)ethyl]-1-naphthamide] | 179 to 180 |
| O=C(N[C@H](Cc1cccc(OC(F)(F)C(F)F)c1)[C@@H](O)c1ccc(F)cc1)OCc1ccccc1 (racemic) [Example 287, benzyl N-[(1RS,2SR)-2-(4-fluorophenyl)-2-hydroxy-1-[3-(1,1,2,2-tetrafluoroethoxy)benzyl]ethyl]carbamate] | 136 to 137 |
| CC1(C)CC=Cc2c(cccc2C(=O)N[C@H](Cc2cccc(OC(F)(F)C(F)F)c2)[C@@H](O)c2ccc(F)cc2)C1 (racemic) [Example 288, N-[(1RS,2SR)-2-(4-fluorophenyl)-2-hydroxy-1-[3-(1,1,2,2-tetrafluoroethoxy)benzyl]ethyl]-6,6-dimethyl-6,7-dihydro-5H-benzo[a]cycloheptene-1-carboxamide] | 115 to 116 |
| O=C(N[C@H](Cc1cccc(OC(F)(F)C(F)F)c1)[C@@H](O)c1ccc(Cl)s1)c1cccc2c1C=CCCC2 (racemic) [Example 289, N-[(1RS,2RS)-2-(5-chloro-2-thienyl)-2-hydroxy-1-[3-(1,1,2,2-tetrafluoroethoxy)benzyl]ethyl]-6,7-dihydro-5H-benzo[a]cycloheptene-1-carboxamide] | 177 to 178 |
| O=C(N[C@H](Cc1cccc(OC(F)(F)C(F)F)c1)[C@@H](O)c1ccc(Br)cc1)c1cccc2c1C=CCCC2 (racemic) [Example 290, N-[(1RS,2SR)-2-(4-bromophenyl)-2-hydroxy-1-[3-(1,1,2,2-tetrafluoroethoxy)benzyl]ethyl]-6,7-dihydro-5H-benzo[a]cycloheptene-1-carboxamide] | 184 to 185 |
| O=C(N[C@H](Cc1cccc(OC(F)(F)C(F)F)c1)[C@@H](O)c1ccc(-c2ccccc2)cc1)c1cccc2c1C=CCCC2 (racemic) [Example 291, N-[(1RS,2SR)-2-(1,1′-biphenyl-4-yl)-2-hydroxy-1-[3-(1,1,2,2-tetrafluoroethoxy)benzyl]ethyl]-6,7-dihydro-5H-benzo[a]cycloheptene-1-carboxamide] | 122 to 123 |
| O=C(N[C@H](Cc1cccc(OC(F)(F)C(F)F)c1)[C@@H](O)c1ccc(-c2ccsc2)cc1)c1cccc2c1C=CCCC2 (racemic) [Example 292, N-[(1RS,2SR)-2-hydroxy-1-[3-(1,1,2,2-tetrafluoroethoxy)benzyl]-2-[4-(3-thienyl)phenyl]ethyl]-6,7-dihydro-5H-benzo[a]cycloheptene-1-carboxamide] | 178 to 179 |
| O=C(N[C@H](Cc1cccc(OC(F)(F)C(F)F)c1)[C@@H](O)c1ccc(-c2ccccc2Cl)cc1)c1cccc2c1C=CCCC2 (racemic) [Example 293, N-[(1RS,2SR)-2-(2′-chloro[1,1′-biphenyl]-4-yl)-2-hydroxy-1-[3-(1,1,2,2-tetrafluoroethoxy)benzyl]ethyl]-6,7-dihydro-5H-benzo[a]cycloheptene-1-carboxamide] | 172 to 173 |
| O=C(N[C@H](Cc1cccc(OC(F)(F)C(F)F)c1)[C@@H](O)c1ccc(-c2ccc(Cl)cc2)cc1)c1cccc2c1C=CCCC2 (racemic) [Example 294, N-[(1RS,2SR)-2-(4′-chloro[1,1′-biphenyl]-4-yl)-2-hydroxy-1-[3-(1,1,2,2-tetrafluoroethoxy)benzyl]ethyl]-6,7-dihydro-5H-benzo[a]cycloheptene-1-carboxamide] | 167 to 168 |
| O=C(N[C@H](Cc1cccc(OC(F)(F)C(F)F)c1)[C@@H](O)c1ccc(-c2cccc(Cl)c2)cc1)c1cccc2c1C=CCCC2 (racemic) [Example 295, N-[(1RS,2SR)-2-(3′-chloro[1,1′-biphenyl]-4-yl)-2-hydroxy-1-[3-(1,1,2,2-tetrafluoroethoxy)benzyl]ethyl]-6,7-dihydro-5H-benzo[a]cycloheptene-1-carboxamide] | 131 to 132 |
| COc1ccccc1-c1ccc([C@H](O)[C@@H](Cc2cccc(OC(F)(F)C(F)F)c2)NC(=O)c2cccc3c2C=CCCC3)cc1 (racemic) [Example 296, N-[(1RS,2SR)-2-hydroxy-2-(2′-methoxy[1,1′-biphenyl]-4-yl)-1-[3-(1,1,2,2-tetrafluoroethoxy)benzyl]ethyl]-6,7-dihydro-5H-benzo[a]cycloheptene-1-carboxamide] | 148 to 150 |
| COc1ccc(-c2ccc([C@H](O)[C@@H](Cc3cccc(OC(F)(F)C(F)F)c3)NC(=O)c3cccc4c3C=CCCC4)cc2)cc1 (racemic) [Example 297, N-[(1RS,2SR)-2-hydroxy-2-(4′-methoxy[1,1′-biphenyl]-4-yl)-1-[3-(1,1,2,2-tetrafluoroethoxy)benzyl]ethyl]-6,7-dihydro-5H-benzo[a]cycloheptene-1-carboxamide] | 162 to 163 |
| COc1cccc(-c2ccc([C@H](O)[C@@H](Cc3cccc(OC(F)(F)C(F)F)c3)NC(=O)c3cccc4c3C=CCCC4)cc2)c1 (racemic) [Example 298, N-[(1RS,2SR)-2-hydroxy-2-(3′-methoxy[1,1′-biphenyl]-4-yl)-1-[3-(1,1,2,2-tetrafluoroethoxy)benzyl]ethyl]-6,7-dihydro-5H-benzo[a]cycloheptene-1-carboxamide] | 79 to 81 |
| O=Cc1ccc(-c2ccc([C@H](O)[C@@H](Cc3cccc(OC(F)(F)C(F)F)c3)NC(=O)c3cccc4c3C=CCCC4)cc2)cc1 (racemic) [Example 299, N-[(1RS,2SR)-2-(4′-formyl[1,1′-biphenyl]-4-yl)-2-hydroxy-1-[3-(1,1,2,2-tetrafluoroethoxy)benzyl]ethyl]-6,7-dihydro-5H-benzo[a]cycloheptene-1-carboxamide] | 174 to 176 |
| O=Cc1cccc(-c2ccc([C@H](O)[C@@H](Cc3cccc(OC(F)(F)C(F)F)c3)NC(=O)c3cccc4c3C=CCCC4)cc2)c1 (racemic) [Example 300, N-[(1RS,2SR)-2-(3′-formyl[1,1′-biphenyl]-4-yl)-2-hydroxy-1-[3-(1,1,2,2-tetrafluoroethoxy)benzyl]ethyl]-6,7-dihydro-5H-benzo[a]cycloheptene-1-carboxamide] | 103 to 105 |
| O=Cc1ccccc1-c1ccc([C@H](O)[C@@H](Cc2cccc(OC(F)(F)C(F)F)c2)NC(=O)c2cccc3c2C=CCCC3)cc1 (racemic) [Example 301, N-[(1RS,2SR)-2-(2′-formyl[1,1′-biphenyl]-4-yl)-2-hydroxy-1-[3-(1,1,2,2-tetrafluoroethoxy)benzyl]ethyl]-6,7-dihydro-5H-benzo[a]cycloheptene-1-carboxamide] | 195 to 196 |
| O=C(N[C@H](Cc1cccc(OC(F)(F)C(F)F)c1)[C@@H](O)c1ccc(-c2ccccc2CO)cc1)c1cccc2c1C=CCCC2 (racemic) [Example 302, N-[(1RS,2SR)-2-[2′-(hydroxymethyl)[1,1′-biphenyl]-4-yl]-2-hydroxy-1-[3-(1,1,2,2-tetrafluoroethoxy)benzyl]ethyl]-6,7-dihydro-5H-benzo[a]cycloheptene-1-carboxamide] | 152 to 154 |

— patent US6982348B2, “Aminoethanol derivatives” (Takeda Pharmaceutical Company Limited, priority 2001, dated 2006)
